Measured values taken from the supplement of paper PMC10307832.

Tests used:
Test in all cases: relative viability (nuclei count vs DMSO), 5 days (fraction); higher = more cells survive
[1] = compound: CC1=CC=C(C=C1)C(=O)CN2C3=C(CCCC3)SC2=N [Pifithrin_alpha] + Cc1nc(NC(=O)N2CCC[C@H]2C(N)=O)sc1-c1ccnc(C(C)(C)C(F)(F)F)c1 [Alpelisib] (partner 2 µM)
Summary of the method: (§1)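 Cells from lung cancer lines were seeded into 1536-well plates and, one day later, dosed by pin tool. Treatments were either a single drug or a fixed dose of an anchor drug with five library-drug doses (not always all listed) in √10 steps. After 5 days, nuclei were stained in a one-step fixation (final 0.05% Triton X-100, 1% formaldehyde, 1 ug/ml Hoechst) and counted on 4× images, and relative viability is the treated-to-vehicle nuclei ratio, as the median of duplicate plates.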

Bemcentinib + AZD7762 = compound: Nc1nc(Nc2ccc3c(c2)CC[C@@H](N2CCCC2)CC3)nn1-c1cc2c(nn1)-c1ccccc1CCC2 [Bemcentinib] + NC(=O)Nc1cc(-c2cccc(F)c2)sc1C(=O)N[C@H]1CCCNC1 [AZD7762] (partner 0.2 µM)
Summary of the method: as §1

Bemcentinib + Navitoclax = compound: Nc1nc(Nc2ccc3c(c2)CC[C@@H](N2CCCC2)CC3)nn1-c1cc2c(nn1)-c1ccccc1CCC2 [Bemcentinib] + CC1(C)CCC(c2ccc(Cl)cc2)=C(CN2CCN(c3ccc(C(=O)NS(=O)(=O)c4ccc(N[C@H](CCN5CCOCC5)CSc5ccccc5)c(S(=O)(=O)C(F)(F)F)c4)cc3)CC2)C1 [Navitoclax] (partner 0.5 µM)
Summary of the method: as §1

Axitinib + Tozasertib = compound: CNC(=O)c1ccccc1Sc1ccc2c(/C=C/c3ccccn3)n[nH]c2c1 [Axitinib] + Cc1cc(Nc2cc(N3CCN(C)CC3)nc(Sc3ccc(NC(=O)C4CC4)cc3)n2)n[nH]1 [Tozasertib] (partner 0.1 µM)
Summary of the method: as §1

| Cell Line | relative viability ([1]; first compound 1 µM) | relative viability ([1]; first compound 3.162 µM) | relative viability ([1]; first compound 10 µM) | relative viability ([1]; first compound 31.62 µM) | relative viability ([1]; first compound 100 µM) | relative viability (Bemcentinib + AZD7762; first compound 0.04 µM) | relative viability (Bemcentinib + AZD7762; first compound 0.1265 µM) | relative viability (Bemcentinib + AZD7762; first compound 0.4 µM) | relative viability (Bemcentinib + AZD7762; first compound 1.265 µM) | relative viability (Bemcentinib + AZD7762; first compound 4 µM) | relative viability (Bemcentinib + Navitoclax; first compound 0.04 µM) | relative viability (Bemcentinib + Navitoclax; first compound 0.1265 µM) | relative viability (Bemcentinib + Navitoclax; first compound 0.4 µM) | relative viability (Bemcentinib + Navitoclax; first compound 1.265 µM) | relative viability (Bemcentinib + Navitoclax; first compound 4 µM) | relative viability (Axitinib + Tozasertib; first compound 0.005 µM) | relative viability (Axitinib + Tozasertib; first compound 0.01581 µM) | relative viability (Axitinib + Tozasertib; first compound 0.05 µM) | relative viability (Axitinib + Tozasertib; first compound 0.1581 µM) | relative viability (Axitinib + Tozasertib; first compound 0.5 µM) |
| --- | --- | --- | --- | --- | --- | --- | --- | --- | --- | --- | --- | --- | --- | --- | --- | --- | --- | --- | --- | --- |
| RERF-LC-KJ | 0.983 | 0.791 | 0.807 | 0.707 | 0.682 | 0.996 | 0.957 | 0.967 | 0.982 | 0.888 | 0.815 | 0.805 | 0.983 | 1.01 | 0.947 | 0.458 | 0.485 | 0.535 | 0.573 | 0.52 |
| NCI-H1734 | 0.75 | 0.699 | 0.638 | 0.576 | 0.682 | 0.516 | 0.611 | 0.613 | 0.518 | 0.441 | 0.872 | 0.986 | 0.94 | 0.886 | 0.875 | 0.278 | 0.268 | 0.274 | 0.241 | 0.25 |
| NCI-H2087 | 1.05 | 1.04 | 0.862 | 0.671 | 0.884 | 1.4 | 1.41 | 1.42 | 1.49 | 1.47 | 1.16 | 1.03 | 1.15 | 0.992 | 1.02 | 0.247 | 0.294 | 0.282 | 0.321 | 0.357 |
| EKVX | 0.918 | 0.743 | 0.567 | 0.583 | 0.548 | 0.623 | 0.719 | 0.759 | 0.723 | 0.717 | 0.859 | 1.01 | 1.03 | 0.804 | 1.1 | 0.41 | 0.492 | 0.358 | 0.347 | 0.341 |
| NCI-H1915 | 0.979 | 1.11 | 1.05 | – | 1.12 | 0.671 | 0.695 | 0.701 | 0.726 | 0.652 | 0.805 | 0.81 | 0.817 | 0.788 | 0.788 | 0.458 | 0.491 | 0.443 | 0.464 | 0.655 |
| NCI-H3122 | 0.859 | 0.864 | 0.912 | 0.812 | 0.917 | 0.682 | 1.04 | 1.03 | 1.12 | 1.06 | 1.01 | 1.06 | 1.02 | 1 | 1.03 | 0.38 | 0.426 | 0.346 | 0.415 | 0.566 |
| BEN | 1.01 | 1.19 | 1.14 | 0.965 | 1.22 | 0.554 | 0.637 | 0.638 | 0.674 | 0.634 | 0.0583 | 0.0756 | 0.0599 | 0.055 | 0.0552 | 0.495 | 0.574 | 0.582 | 0.513 | 0.466 |
| 201T | 1.04 | 0.83 | 0.792 | 0.81 | 0.79 | 0.643 | 0.668 | 0.605 | 0.611 | 0.625 | 1.17 | 1.24 | 1.21 | 1.24 | 1.3 | 1 | 0.896 | 0.907 | 0.929 | 1.19 |
| NCI-H1792 | 0.688 | 0.67 | 0.485 | 0.469 | 0.657 | 0.577 | 0.888 | 0.681 | 0.442 | 0.669 | 0.668 | 0.57 | 0.859 | 0.697 | 0.665 | – | – | – | – | – |
| NCI-H1666 | 0.771 | 0.577 | 0.527 | 0.479 | 0.352 | 0.95 | 0.91 | 0.867 | 0.768 | 0.704 | 0.864 | 0.942 | 1.01 | 0.866 | 1.03 | 0.684 | 0.638 | 0.643 | 0.7 | 0.706 |
| NCI-H1993 | – | 0.692 | 0.757 | 0.568 | 0.607 | 0.778 | 1.01 | 1.06 | 0.9 | 0.658 | 0.897 | 0.911 | 1.02 | 0.994 | 1.08 | 0.617 | 0.59 | 0.592 | 0.607 | 0.641 |
| CAL-12T | – | 1.04 | 0.971 | 0.736 | 1.13 | 0.654 | 0.757 | 0.618 | 0.636 | 0.485 | 1.12 | 1.28 | 1.25 | 1.19 | 1.32 | 0.417 | 0.363 | 0.34 | 0.365 | 0.394 |
| ChaGo-K-1 | – | – | – | – | – | 0.838 | 0.976 | 0.919 | 0.907 | 0.958 | 0.872 | 0.933 | 1.02 | 0.862 | 0.624 | 0.217 | 0.205 | 0.212 | 0.237 | 0.255 |
| NCI-H1703 | 0.317 | 0.306 | 0.252 | 0.366 | 0.377 | 0.109 | 0.121 | 0.145 | 0.16 | 0.134 | 1.08 | 1.03 | 1.34 | 1.04 | 0.85 | – | – | – | – | – |
